Structures are written as SMILES. Counter-ions that a name gives are not always drawn. Like-named read-outs stand apart in the source and are kept apart here. Some results are limits rather than exact numbers.

A short description of series [1]: Gravimetric vapour sorption (GVS). The note with it: at 90% RH. The series is classed as physicochemical. As to the method: Sorption isotherms were obtained using a Hiden Isochema moisture sorption analyser (model IGAsorp), controlled by IGAsorp Systems Software V6.50.48. The sample was maintained at a constant temperature (25° C.) by the instrument controls. The humidity was controlled by mixing streams of dry and wet nitrogen, with a total flow of 250 ml·min-1. The instrument was verified for relative humidity content by measuring three calibrated Rotronic salt solutions (10-50-88%). The weight change of the sample was monitored as a function of humidity by a microbalance (accuracy +/−0.005 mg). A defined amount of sample was placed in a tared mesh stainless steel basket under ambient conditions. A full experimental cycle typically consisted of three scans (sorption, desorption and sorption) at a constant temperature (25° C.) and 10% RH intervals over a 0-90% range (60 minutes for each humidity level).

Series [2] can be described thus: Gravimetric solubility in water. It counts as physicochemical. Here is the method: The solubility in water of the salts was measured using a gravimetric solubility protocol.
1 ml of water was charged into crystallisation tubes. The solid was weighed into a tared glass vial, added in portions to the solutions and the vial weighed after each addition until a hazy solution was observed. The amount in mg was then calculated to give the solubility in mg/ml.
The solubility in water of the salts was measured using a gravimetric solubility protocol. Thus, 1 ml of water was charged into crystallisation tubes. The solid was weighed into a tared glass vial, added in portions to the solutions and the vial weighed after each addition until a hazy solution was observed. The amount in mg was then calculated to give the solubility in mg/mL.

In series [3] the test system is U87MG cells. Put plainly: U87MG human glioblastoma cell viability, SRB assay, 72 hours. It counts as cell-based. Here is the method: The following protocol was used to measure the effects of compounds of the invention on U87MG cell viability.
U87MG cells were grown in their recommended growth media/supplements (ATCC). Cells were seeded at a concentration of 5000 cells per well into 96 well plates overnight at 37° C., 5% CO2. Cells were treated with relevant concentrations of test compound for 72 hours. After 72 hours incubation, viability was established using sulforhodamine B (SRB) colorimetric assay. Percentage viability was calculated against the mean of the DMSO treated control samples, and IC50 values for inhibition of cell growth were calculated using GraphPad Prism software by nonlinear regression (4 parameter logistic equation).

Series [4] can be described thus: Chiral stability (interconversion) of isolated atropisomers on heating, chiral HPLC. The series is classed as physicochemical. The note with it: for % ee of sample @ 40° C. / % ee sample @ 80° C.: EtOH solution, listed as A-1. As to the method:
Stability studies were carried out on the isolated atropisomers, atropisomers A-1 and A-2. To assess the interconversion of atropisomer A-1 and atropisomer A-2 chiral stability was monitored at 40° C. and 80° C. […] 1. 2×1 mg of pure atropisomer was dissolved in 1 mL of EtOH in a sealed-dram vial. 2. One set of vials was heated at 40° C. and another set at 80° C. 3. […] 4. Analysis was carried out at the following timepoints: 0 h, 24 h, 48 h, 72 h, 96 h and 240 h for the samples kept at 40° C. and 24 h, 96 h and 240 h for the samples kept at 80° C. using Chiral HPLC method 5

Series [5] has as its system panel of 48 cancer-derived cell lines. Kind of series: Proliferation assay on diverse cancer cell line panel, CellTiter-Glo, 72 hours. It counts as cell-based. The note with it: 72 hours. Here is the method:
Screening against diverse cancer cell lines was performed to identify tumour types displaying sensitivity to atropisomers A-1 and A-2. A panel of 48 cancer-derived cell lines was screened in a high-throughput proliferation assay using dilutions of atropisomers A-1/A-2. Cell lines that were screened included those representing cancer of the pancreas, large intestine/colorectum, lung, brain and nerves, and lymphoma and leukaemia cell lines. Cell lines were treated with serial half-log dilutions of compound and assayed 72 hours later for proliferation using CellTiter-Glo Assay (Promega). IC50 values were calculated by fitting the dose-response data using a nonlinear regression model.

For series [6], the system named is U87MG cells. Kind of series: Mitotic phenotype study in U87MG cells. The series is classed as cell-based, human. The note with it: 0.03 μM, listed as A-1. As to the method: Distinct mitotic phenotypes are induced following inhibition of PLK1 and PLK4 in cells. […] Centriole assembly is controlled by PLK4, with inhibitors inducing a multipolar spindle phenotype due to centrosome defects which results in abnormal cyokinesis (Wong et al., 2015. Science 348(6239); 1155-1160). Cells were plated at 10 000/well in 96-well plates and incubated overnight. The following day atropisomer A-2 stocks in DMSO were diluted in medium then added to cells with a maximum final DMSO concentration on cells of 0.2%. Cells were incubated with the compound for 24 hours then fixed in 3.7% formaldehyde. Cells were permeabilised with 0.1% Triton X-100 then incubated with anti-phospho-histone H3 (Ser10) antibody (Abcam). The cells were washed with PBS then incubated with AlexaFluor 488 labelled goat anti-rabbit IgG (Invitrogen) in the presence of 4 ug/mL Hoechst 33342 (Invitrogen). Cells were washed in PBS then imaged on an Arrayscan VTi HCS instrument using the Target Activation V4 Bioapplication. A user-defined threshold was applied to identify mitotic cells based on the intensity of phospho-histone H3 staining. In a separate study, following the above protocol and using single compound concentrations of 0.03 μM for each of atropisomer A-1 and atropisomer A-2, the frequency of observed mitotic phenotypes in U87MG cells was manually assessed and classified into the following phenotypes: non-congressed chromosomes, multipolar spindles/abnormal cytokinesis, monopolar spindles, normal prometaphase, normal metaphase for each of A-1 and A-2.

Series [7] has as its system wild-type KRAS HeLa cells. Put plainly: HeLa cell viability, wild-type KRAS transgene, Cell Titre Blue. The series is classed as cell-based. The note with it: 72 hours, listed as A-4, read-out: WT GI50. Here is the method: (§1) Atropisomers A-1, A-2, A-3 and A-4 were tested on HeLa cells engineered to inducibly express wild-type or oncogenic KRasG12V transgenes using the FLP-in/T-Rex system (Invitrogen). Cells were plated, and then treated with or without Doxycycline to induce transgene expression, and then treated with serially-diluted PBD inhibitors. After 72 hours of incubation, cell viability was assessed using the Cell Titre Blue reagent (Promega) and a BMG Pherastar plate reader. The effect of PBD inhibition on cell viability with either wild-type or oncogenic G12V KRAS was assessed using GraphPad Prism.
(§2) From the results obtained by following the above protocol, the GI50 values against the wild-type and KRAS G12V HeLa cell line of each of the atropisomers were determined as shown in Table 12.

For the next series, the system named is KRAS G12V HeLa cell line. Put plainly: HeLa cell viability, oncogenic KRasG12V transgene, Cell Titre Blue. The note with it: KRAS G12V HeLa cells, 72 hours; listed as A-4. It counts as cell-based. Here is the method:
as §1, §2

In the case of `CN(C)CCNC(=O)c1ccc(-c2ccc(-c3ccc(Cl)cc3)n2-c2ccccc2C(F)(F)F)cc1` [(+)-L-tartaric acid salt, (R)-2,4-[5-(4-chlorophenyl)-1-[2-(trifluoromethyl)-phenyl]pyrrol-2-yl]-N-[2-(dimethylamino)-ethyl]benzamide (+)-L-tartaric acid salt], the surface moisture uptake in series [1] is listed as less than 1%. In addition, the “water solubility compared with free base” value in series [2] is “improved water solubility over the free base”.

As for `CN(C)CCNC(=O)c1ccc(-c2ccc(-c3ccc(Cl)cc3)n2-c2ccccc2C(F)(F)F)cc1` (single isomer, unassigned) [Atropisomer A-1, 4-[5-(4-chlorophenyl)-1-[2-(trifluoromethyl)phenyl]pyrrol-2-yl]-N-[2-(dimethylamino)ethyl]benzamide], the IC50 – broadly, the concentration at which inhibition is half-maximal – in the series on U87MG cells [3] is 4.6 µM; in series [5] (A549, Lung) it was 9.19 µM; in series [5] (A-172, Brain & Nerves), 7.07 µM; in series [5] (AsPC-1, Pancreas), greater than 10 µM; in series [5] (BxPC-3, Pancreas), 6.97 µM; in series [5] (COLO 205, Large intestine/Colorectum), 6.75 µM. For the same compound, the IC50 in series [5] (Capan-1, Pancreas) is greater than 10 µM; in series [5] (D283 Med, Brain & Nerves) it was 9.26 µM; in series [5] (DOHH-2, Blood/Lymphoma) it was 5.64 µM; in series [5] (Daoy, Brain & Nerves) it was 7 µM; in series [5] (Daudi, Blood/Lymphoma), 7.17 µM; in series [5] (GRANTA-519, Blood/Lymphoma), 7.42 µM. Also, the IC50 was found to be 9.94 µM in series [5] (HBL-1, Blood/Lymphoma); 8.26 µM in series [5] (HCC44, Lung); 7.36 µM in series [5] (HOT 116, Large intestine/Colorectum, listed as A-1); 4.53 µM in series [5] (HT-29, Large intestine/Colorectum); 4.71 µM in series [5] (JVM-2, Blood/Lymphoma); 7.94 µM in series [5] (JeKo-1, Blood/Lymphoma). For the same compound, the IC50 in series [5] (KG-1, Blood/Leukaemia) was greater than 10 µM; in series [5] (Kasumi-1, Blood/Leukaemia), 5.13 µM; in series [5] (LN-229, Brain & Nerves), 7.37 µM; in series [5] (LoVo, Large intestine/Colorectum) it was 8.36 µM; in series [5] (MIA PaCa-2, Pancreas), 9.17 µM; in series [5] (ML-2, Blood/Leukaemia, listed as A-1), 4.01 µM. Moreover, the half-maximal inhibitory concentration (IC50) is 6.49 µM in series [5] (MV-4-11, Blood/Leukaemia); 7.05 µM in series [5] (NAMALWA, Blood/Lymphoma); 8.13 µM in series [5] (NCI-H460, Lung); 8.25 µM in series [5] (NCI-H1299, Lung); greater than 10 µM in series [5] (NCI-H1373, Lung); 7.73 µM in series [5] (NCI-H1792, Lung). The IC50 is 5.14 µM in series [5] (NCI-H1975, Lung); 6.67 µM in series [5] (OCI-LY-19, Blood/Lymphoma); greater than 10 µM in series [5] (PANC-1, Pancreas); 9 µM in series [5] (Panc 10.05, Pancreas); 6.17 µM in series [5] (RKO, Large intestine/Colorectum); 3.91 µM in series [5] (Raji, Blood/Lymphoma). Further, the IC50 stood at 3.99 µM in series [5] (Ramos, Blood/Lymphoma); 7.78 µM in series [5] (SK-MES-1, Lung); 7.01 µM in series [5] (SU-DHL-2, Blood/Lymphoma); 3.98 µM in series [5] (SU-DHL-6, Blood/Lymphoma); 8.35 µM in series [5] (SVV620, Large intestine/Colorectum, listed as A-1); 7.55 µM in series [5] (SW480, Large intestine/Colorectum). In addition, the IC50 in series [5] (SW1088, Brain & Nerves) was 8.49 µM; in series [5] (T98G, Brain & Nerves), 5.26 µM; in series [5] (Toledo, Blood/Lymphoma) it was greater than 10 µM; in series [5] (U118 MG, Brain & Nerves), 7.6 µM; in series [5] (U-2932, Blood/Lymphoma) it was 4.47 µM; in series [5] (WSU-DLCL2, Blood/Lymphoma) it was 6.74 µM. In addition, the IC50 in series [5] (Z-138, Blood/Lymphoma) is 7.04 µM. The “% ee of sample @ 40° C.” value in series [4] (0 h), in series [4] (24 h), in series [4] (48 h), in series [4] (72 h), in series [4] (96 h) and in series [4] (10 days) was 100 % ee in each case. In addition, the “% ee sample @ 80° C.” value in series [4] (0 h), in series [4] (24 h), in series [4] (96 h) and in series [4] (10 days) was 100 % ee throughout. Further, the “atropisomer classification (LaPlante)” value in series [4] (from stability of isolated atropisomers) is on record as “Class 3”. In addition, in series [4] (heating for 10 days at 40° C. and 80° C.), the “interconversion / racemization of atropisomers on heating” value is recorded as “no interconversion was observed”. Besides, in the series on U87MG cells [6], the “cells with abnormal cytokinesis” value is recorded as 24%. Besides, the “cells with non-congressed chromosomes” value in the series with U87MG cells [6] is “No evidence”. Also, the “cells with normal mitotic phenotype” value in the series on U87MG cells [6] is recorded as 76%.

For the compound `CN(C)CCNC(=O)c1ccc(-c2ccc(-c3ccc(Cl)cc3)n2-c2ccccc2C(F)(F)F)nc1` (single isomer, unassigned) [Atropisomer A-4, 6-[5-(4-chlorophenyl)-1-[2-(trifluoromethyl)phenyl]pyrrol-2-yl]-N-[2-(dimethylamino)ethyl]pyridine-3-carboxamide], the IC50 with U87MG cells [3] (listed as A-4) came out at 3.94 µM. The GI50 (in general, the concentration that inhibits growth by half) turned out to be 0.254 µM in series [7] and 0.153 µM with KRAS G12V HeLa cell line.
